Assays:
[1] = system: NQO1 activity in Hepa1c1c7 cells; test: NAD(P)H: quinone oxidoreductase-1 (NQO1) enzyme induction assay (in vitro); type: cell-based, mouse; conditions: Mus musculus, Hepa-1c1c7, NQO1 activity with 400 nM test compound as a ratio from the base without compound, about 48 hr
Description: The NQO1 assay was performed based on a previous report (Methods in Enzymology 2004; 382: 243-258). Hepa1c1c7 cells (mouse hepatocyte cell line, ATCC, cat. no. CRL-2026) were cultured in D-MEM medium containing 10% FBS and 1% penicillin/streptomycin (5% CO2, 37° C.), and seeded into 96-well plates (Corning REF. 353072) at 1×10^4 cells/well. A portion of the wells were prepared with medium only for background measurement without seeding cells. The next day, 400 nM of the test compound (0.004% of the final concentration in DMSO) dissolved in DMSO was added thereto, and the wells were incubated for about 48 hr. A well without adding the test compound was prepared for base activity assay in part. […] After the medium was removed, 50 μL of the cell lysate was added and incubated at 37° C. for 10 minutes, followed by shaking at room temperature for 10 minutes. 200 μL of reaction solution was added thereto, and allowed to stand for 5 minutes at room temperature. 50 μL of the stop solution was added thereto, and absorbance was measured at 610 nm on a SpectraMax PLUS384 (Molecular devices) or […] Pharma Biomedical). The test results were analyzed in Excel, and the NQO1 activity upon addition of 400 nM of test compound was calculated as a ratio from the base without the compound. NQO1 activity ratio when test compound is added=(absorbance when test compound is added-absorbance of medium only)/(absorbance without addition of compound-absorbance of medium only) [numerical formula 2] The results of each test compound in this test are shown in the following Table 2 (A:5<NQO1 activity ratio, B:3<NQO1 activity ratio≤5).

[2] = biological target: binding between Nrf2 and Keap1 (Homo sapiens (Human), UniProt Q14145); test: FP assay (in vitro): inhibition of Nrf2-Keap1 binding by fluorescence polarization; conditions: GST-fused human Keap1 (325-642) 20 nM, FITC-labeled Nrf2 peptide 10 nM, 2 hr at room temperature
Sequence of binding between Nrf2 and Keap1 (Q14145 325-624 limits assumed): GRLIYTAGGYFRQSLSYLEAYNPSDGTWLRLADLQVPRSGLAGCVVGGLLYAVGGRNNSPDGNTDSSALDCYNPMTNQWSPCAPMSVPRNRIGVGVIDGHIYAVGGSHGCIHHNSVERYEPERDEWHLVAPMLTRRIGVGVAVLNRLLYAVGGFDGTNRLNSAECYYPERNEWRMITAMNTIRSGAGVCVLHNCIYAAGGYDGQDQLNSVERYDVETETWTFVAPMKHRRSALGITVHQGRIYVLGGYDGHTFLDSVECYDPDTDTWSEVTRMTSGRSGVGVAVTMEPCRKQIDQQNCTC

Row | SMILES | fold induction at 0.4 µM [1] | IC50 [2]
1 | CC[C@@H]1CN(Cc2cc(C(CC(=O)O)c3ccc4c(nnn4C)c3Cl)cc3ccsc23)S(=O)(=O)c2cc(Cl)cnc2O1 (stereo partly drawn) [Example 2, 3-(7-{[(4R)-8-Chloro-4-ethyl-1,1-dioxido-3,4-dihydro-2H-pyrido[2,3-b][1,4,5]oxathiazepin-2-yl]methyl}-1-benzothiophen-5-yl)-3-(4-chloro-1-methyl-1H-benzotriazol-5-yl)propanoic acid] | > 5 | 10 to 30 nM
2 | CC[C@@H]1CN(Cc2cc(C(CC(=O)O)c3ccc4c(nnn4C)c3C)cc3c2CCC3)S(=O)(=O)c2cc(Cl)cnc2O1 (stereo partly drawn) [Example 3, 3-(7-{[(4R)-8-Chloro-4-ethyl-1,1-dioxido-3,4-dihydro-2H-pyrido[2,3-b][1,4,5]oxathiazepin-2-yl]methyl}-2,3-dihydro-1H-inden-5-yl)-3-(1,4-dimethyl-1H-benzotriazol-5-yl)propanoic acid] | > 5 | ≤ 10 nM
3 | C[C@@H]1CN(Cc2cc(C(CC(=O)O)c3ccc4c(nnn4C)c3F)cc3c2CCC3)S(=O)(=O)c2ccccc2O1 (stereo partly drawn) [Example 6, 3-(4-Fluoro-1-methyl-1H-benzotriazol-5-yl)-3-(7-{[(4R)-4-methyl-1,1-dioxido-3,4-dihydro-2H-5,1,2-benzoxathiazepin-2-yl]methyl}-2,3-dihydro-1H-inden-5-yl)propanoic acid] | > 5 | ≤ 10 nM
4 | CCOc1ccc2c(n1)O[C@H](CC)CN(Cc1cc(C(CC(=O)O)c3ccc4c(nnn4C)c3C)cc3c1CCC3)S2(=O)=O (stereo partly drawn) [Example 9, 3-(1,4-Dimethyl-1H-benzotriazol-5-yl)-3-(7-{[(4R)-7-ethoxy-4-ethyl-1,1-dioxido-3,4-dihydro-2H-pyrido[2,3-b][1,4,5]oxathiazepin-2-yl]methyl}-2,3-dihydro-1H-inden-5-yl)propanoic acid] | > 5 | 10 to 30 nM
5 | CC[C@@H]1CN(Cc2cc(C(CC(=O)O)c3ccc4c(nnn4C)c3C)cc3c2CCC3)S(=O)(=O)c2cc(C)cnc2O1 (stereo partly drawn) [Example 10, 3-(1,4-Dimethyl-1H-benzotriazol-5-yl)-3-(7-{[(4R)-4-ethyl-8-methyl-1,1-dioxido-3,4-dihydro-2H-pyrido[2,3-b][1,4,5]oxathiazepin-2-yl]methyl}-2,3-dihydro-1H-inden-5-yl)propanoic acid] | > 5 | 10 to 30 nM
6 | CC[C@@H]1CN(Cc2cc(C(CC(=O)O)c3ccc4c(nnn4C)c3C)cc3c2CCC3)S(=O)(=O)c2ccc(C)nc2O1 (stereo partly drawn) [Example 11, 3-(1,4-Dimethyl-1H-benzotriazol-5-yl)-3-(7-{[(4R)-4-ethyl-7-methyl-1,1-dioxido-3,4-dihydro-2H-pyrido[2,3-b][1,4,5]oxathiazepin-2-yl]methyl}-2,3-dihydro-1H-inden-5-yl)propanoic acid] | > 5 | 10 to 30 nM
7 | CC[C@@H]1CN(Cc2cc(C(CC(=O)O)c3ccc4c(nnn4C)c3C)cc3c2CCC3)S(=O)(=O)c2ccccc2O1 (stereo partly drawn) [Example 12, 3-(1,4-Dimethyl-1H-benzotriazol-5-yl)-3-(7-{[(4R)-4-ethyl-1,1-dioxido-3,4-dihydro-2H-5,1,2-benzoxathiazepin-2-yl]methyl}-2,3-dihydro-1H-inden-5-yl)propanoic acid] | > 5 | ≤ 10 nM
8 | CC[C@@H]1CN(Cc2cc(C(CC(=O)O)c3ccc4c(nnn4C)c3C)cc3c2CCC3)S(=O)(=O)c2cc(Cl)c(F)cc2O1 (stereo partly drawn) [Example 13, 3-(7-{[(4R)-8-Chloro-4-ethyl-7-fluoro-1,1-dioxido-3,4-dihydro-2H-5,1,2-benzoxathiazepin-2-yl]methyl}-2,3-dihydro-1H-inden-5-yl)-3-(1,4-dimethyl-1H-benzotriazol-5-yl)propanoic acid] | > 5 | ≤ 10 nM
9 | CC[C@@H]1CN(Cc2cc(C(CC(=O)O)c3ccc4c(nnn4C)c3C)cc3c2CCC3)S(=O)(=O)c2cc(Cl)ccc2O1 (stereo partly drawn) [Example 14, 3-(7-{[(4R)-8-Chloro-4-ethyl-1,1-dioxido-3,4-dihydro-2H-5,1,2-benzoxathiazepin-2-yl]methyl}-2,3-dihydro-1H-inden-5-yl)-3-(1,4-dimethyl-1H-benzotriazol-5-yl)propanoic acid] | > 5 | 10 to 30 nM
10 | CC[C@@H]1CN(Cc2cc(C(CC(=O)O)c3ccc4c(nnn4C)c3C)cc3c2CCC3)S(=O)(=O)c2cccc(Cl)c2O1 (stereo partly drawn) [Example 16, 3-(7-{[(4R)-6-Chloro-4-ethyl-1,1-dioxido-3,4-dihydro-2H-5,1,2-benzoxathiazepin-2-yl]methyl}-2,3-dihydro-1H-inden-5-yl)-3-(1,4-dimethyl-1H-benzotriazol-5-yl)propanoic acid] | > 5 | ≤ 10 nM
11 | CC[C@@H]1CN(Cc2cc(C(CC(=O)O)c3ccc4c(nnn4C)c3C)cc3c2CCC3)S(=O)(=O)c2c(Cl)cccc2O1 (stereo partly drawn) [Example 17, 3-(7-{[(4R)-9-Chloro-4-ethyl-1,1-dioxido-3,4-dihydro-2H-5,1,2-benzoxathiazepin-2-yl]methyl}-2,3-dihydro-1H-inden-5-yl)-3-(1,4-dimethyl-1H-benzotriazol-5-yl)propanoic acid] | 3 to 5 | ≤ 10 nM
12 | CCOc1cc2c(cc1Cl)S(=O)(=O)N(Cc1cc(C(CC(=O)O)c3ccc4c(nnn4C)c3C)cc3c1CCC3)C[C@@H](CC)O2 (stereo partly drawn) [Example 18, 3-(7-{[(4R)-8-Chloro-7-ethoxy-4-ethyl-1,1-dioxido-3,4-dihydro-2H-5,1,2-benzoxathiazepin-2-yl]methyl}-2,3-dihydro-1H-inden-5-yl)-3-(1,4-dimethyl-1H-benzotriazol-5-yl)propanoic acid] | 3 to 5 | 30 to 100 nM
13 | CCOc1ccc2c(n1)O[C@H](CC)CN(Cc1cc(C(CC(=O)O)c3ccc4c(nnn4C)c3C)cc3ccsc13)S2(=O)=O (stereo partly drawn) [Example 19, 3-(1,4-Dimethyl-1H-benzotriazol-5-yl)-3-(7-{[(4R)-7-ethoxy-4-ethyl-1,1-dioxido-3,4-dihydro-2H-pyrido[2,3-b][1,4,5]oxathiazepin-2-yl]methyl}-1-benzothiophen-5-yl)propanoic acid] | > 5 | 10 to 30 nM
14 | CC[C@@H]1CN(Cc2cc([C@@H](CC(=O)O)c3ccc4c(nnn4C)c3C)cc3c2CCC3)S(=O)(=O)c2cc(Cl)c(F)cc2O1 [Example 20, (3R)-3-(7-{[(4R)-8-Chloro-4-ethyl-7-fluoro-1,1-dioxido-3,4-dihydro-2H-5,1,2-benzoxathiazepin-2-yl]methyl}-2,3-dihydro-1H-inden-5-yl)-3-(1,4-dimethyl-1H-benzotriazol-5-yl)propanoic acid] | > 5 | 10 to 30 nM
15 | CC[C@@H]1CN(Cc2cc([C@H](CC(=O)O)c3ccc4c(nnn4C)c3C)cc3c2CCC3)S(=O)(=O)c2cc(Cl)c(F)cc2O1 [Example 21, (3S)-3-(7-{[(4R)-8-Chloro-4-ethyl-7-fluoro-1,1-dioxido-3,4-dihydro-2H-5,1,2-benzoxathiazepin-2-yl]methyl}-2,3-dihydro-1H-inden-5-yl)-3-(1,4-dimethyl-1H-benzotriazol-5-yl)propanoic acid] | > 5 | ≤ 10 nM
